Consider 47 compounds from patent US9834558B2, “Substituted bridged urea analogs as sirtuin modulators” (GLAXOSMITHKLINE LLC, priority 2013, dated 2017).

The target in one assay is T1, SIRT1 (Homo sapiens, UniProt Q96EB6).
T1 sequence (Q96EB6 1-747): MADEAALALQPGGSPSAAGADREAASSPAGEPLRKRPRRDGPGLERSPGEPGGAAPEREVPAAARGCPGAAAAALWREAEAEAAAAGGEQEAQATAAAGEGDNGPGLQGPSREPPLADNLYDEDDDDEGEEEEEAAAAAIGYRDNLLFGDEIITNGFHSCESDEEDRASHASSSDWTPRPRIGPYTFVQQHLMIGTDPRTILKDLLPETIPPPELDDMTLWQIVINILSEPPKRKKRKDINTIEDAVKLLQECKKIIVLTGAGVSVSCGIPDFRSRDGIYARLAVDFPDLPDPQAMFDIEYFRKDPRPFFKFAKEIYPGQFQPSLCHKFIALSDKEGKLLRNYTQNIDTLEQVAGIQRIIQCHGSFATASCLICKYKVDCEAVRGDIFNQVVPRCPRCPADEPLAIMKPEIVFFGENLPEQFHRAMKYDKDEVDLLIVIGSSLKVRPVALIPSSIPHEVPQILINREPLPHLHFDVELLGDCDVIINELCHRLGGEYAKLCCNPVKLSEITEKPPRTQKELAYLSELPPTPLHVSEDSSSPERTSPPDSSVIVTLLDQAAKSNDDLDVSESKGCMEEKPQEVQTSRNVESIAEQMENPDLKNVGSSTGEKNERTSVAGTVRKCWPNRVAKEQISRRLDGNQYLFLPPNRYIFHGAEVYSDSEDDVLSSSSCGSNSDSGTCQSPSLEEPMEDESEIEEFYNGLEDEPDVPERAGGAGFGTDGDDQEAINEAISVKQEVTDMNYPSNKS
The experiment in a line: Trp mass spectrometry assay of SIRT1 activation. The class given is biochemical. Particulars: Trp mass spectrometry assay; EC1.5 = concentration of test compound that results in 150% activation of SIRT1. The method, boiled down: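 Activation read-out: mass-spec measurement of O-acetyl-ADP-ribose or deacetylated Trp peptide versus compound-free controls, giving EC1.5 and Percent Maximum Activation. Reactions ran 25 min at 25 °C, pH 7.5, with 120 μM βNAD+, 0.5 μM acetylated p53-derived peptide and 10 nM His-tagged SIRT1.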
With `O=C1CN2C[C@H]1N(C(=O)Nc1ccccn1)c1nc(-c3cccc(C(F)(F)F)c3)ccc12` [Example 620], the “Tryp AVG EC1.5 (μM)” value is on record as “B (B (EC1.5 1-25 μM))”.

With `Cc1cc(C)n(N)c1CC1C=CC(CCC(=O)NCc2cn(-c3cccc(NC(=O)N4c5nc(-c6cccc(C(F)(F)F)c6)ccc5N5CC[C@H]4C5)c3)nn2)=N1` (stereo partly drawn) [Example 622], the “Tryp AVG EC1.5 (μM)” value was “C (C (EC1.5>25 μM))”.

As to `Cn1nccc1-c1cccc(NC(=O)N2c3nc(-c4cccc(C(F)(F)F)c4)ccc3N3CC[C@H]2C3)n1` [Example 623], the “Tryp AVG EC1.5 (μM)” value is “A (A (EC1.5<1 μM))”.

In the case of `O=C(Nc1ccc2c(c1)CCC2)N1c2nc(-c3cccc(C(F)(F)F)c3)ccc2N2CC[C@H]1C2` [Example 624], the “Tryp AVG EC1.5 (μM)” value is on record as “B (B (EC1.5 1-25 μM))”.

Staying with this assay, now noted: Trp mass spectrometry assay; percent maximum fold activation of SIRT1; read-out: Tryp % Fold Act.
As for `Cc1cc(C)n(N)c1CC1C=CC(CCC(=O)NCc2cn(-c3cccc(NC(=O)N4c5nc(-c6cccc(C(F)(F)F)c6)ccc5N5CC[C@H]4C5)c3)nn2)=N1` (stereo partly drawn) [Example 622], the Emax is less than 150%.

The same assay, now with this note: concentration giving 150% activation of SIRT1; Trp peptide substrate.
Consider `O=C(Nc1cccc(-c2ccccc2)c1)N1c2nc(-c3cccc(C(F)(F)F)c3)ccc2N2CC[C@H]1C2` [Example 625], for which the “Tryp AVG EC1.5 (μM)” value was “A (A (EC1.5<1 μM))”.

For the compound `COC(=O)c1cccc(NC(=O)N2c3nc(-c4cccc(C(F)(F)F)c4)ccc3N3CC[C@H]2C3)c1` [Example 626], the “Tryp AVG EC1.5 (μM)” value is listed as “A (A (EC1.5<1 μM))”.

As to `O=C(NCCCn1ccnc1)N1c2nc(-c3cccc(C(F)(F)F)c3)ccc2N2CC[C@H]1C2` [Example 627], the “Tryp AVG EC1.5 (μM)” value was “B (B (EC1.5 1-25 μM))”.

Regarding `O=C(Nc1ccc(N2CCCCC2)cc1)N1c2nc(-c3cccc(C(F)(F)F)c3)ccc2N2CC[C@H]1C2` [Example 628], the “Tryp AVG EC1.5 (μM)” value was “B (B (EC1.5 1-25 μM))”.

As for `O=C(Nc1cccc(CN2CCOCC2)c1)N1c2nc(-c3cccc(C(F)(F)F)c3)ccc2N2CC[C@H]1C2` [Example 629], the “Tryp AVG EC1.5 (μM)” value was “A (A (EC1.5<1 μM))”.

With `O=C(Nc1cncc(F)c1)N1c2nc(-c3cccc(C(F)(F)F)c3)ccc2N2C[C@@H](O)[C@H]1C2` [Example 630], the “Tryp AVG EC1.5 (μM)” value is on record as “A (A (EC1.5<1 μM))”.

In the case of `O=C(Nc1cccnn1)N1c2nc(-c3cccc(C(F)(F)F)c3)ccc2N2C[C@@H](O)[C@H]1C2` [Example 631], the “Tryp AVG EC1.5 (μM)” value is reported as “B (B (EC1.5 1-25 μM))”.

`Cc1nccn1CCCNC(=O)N1c2nc(-c3cccc(C(F)(F)F)c3)ccc2N2CC[C@H]1C2` [Example 632]: the “Tryp AVG EC1.5 (μM)” value is recorded as “C (C (EC1.5>25 μM))”.

`O=C(NCCCc1ccncc1)N1c2nc(-c3cccc(C(F)(F)F)c3)ccc2N2CC[C@H]1C2` [Example 633]: the “Tryp AVG EC1.5 (μM)” value is listed as “B (B (EC1.5 1-25 μM))”.

On to `CC(=O)O[C@H]1CN2C[C@H]1N(C(=O)Nc1ccccn1)c1nc(-c3cccc(C(F)(F)F)c3)ccc12` [Example 634], for which the “Tryp AVG EC1.5 (μM)” value is “C (C (EC1.5>25 μM))”.

In the case of `CC(=O)N1CCC(c2cccc(NC(=O)N3c4nc(-c5cccc(C(F)(F)F)c5)ccc4N4CC[C@H]3C4)c2)C1` (stereo partly drawn) [Example 635], the “Tryp AVG EC1.5 (μM)” value is on record as “A (A (EC1.5<1 μM))”.

For `CCC(=O)N1CCC(c2cccc(NC(=O)N3c4nc(-c5cccc(C(F)(F)F)c5)ccc4N4CC[C@H]3C4)c2)C1` (stereo partly drawn) [Example 636], the “Tryp AVG EC1.5 (μM)” value is reported as “A (A (EC1.5<1 μM))”.

`O=C(C1CC1)N1CCC(c2cccc(NC(=O)N3c4nc(-c5cccc(C(F)(F)F)c5)ccc4N4CC[C@H]3C4)c2)C1` (stereo partly drawn) [Example 637]: the “Tryp AVG EC1.5 (μM)” value is “A (A (EC1.5<1 μM))”.

As to `CC(C)(C)OC(=O)NCc1cnnn1-c1cccc(NC(=O)N2c3nc(-c4cccc(C(F)(F)F)c4)ccc3N3CC[C@H]2C3)c1` [Example 638], the “Tryp AVG EC1.5 (μM)” value is “A (A (EC1.5<1 μM))”.

As to `NCCCCCC(=O)NCc1cn(-c2cccc(NC(=O)N3c4nc(-c5cccc(C(F)(F)F)c5)ccc4N4CC[C@H]3C4)c2)nn1` [Example 639], the “Tryp AVG EC1.5 (μM)” value was “A (A (EC1.5<1 μM))”.

In the case of `NCc1cnnn1-c1cccc(NC(=O)N2c3nc(-c4cccc(C(F)(F)F)c4)ccc3N3CC[C@H]2C3)c1` [Example 640], the “Tryp AVG EC1.5 (μM)” value is listed as “A (A (EC1.5<1 μM))”.

Regarding `O=C(Nc1ccc(Oc2ccccc2)cc1)N1c2nc(-c3cccc(C(F)(F)F)c3)ccc2N2CC[C@H]1C2` [Example 641], the “Tryp AVG EC1.5 (μM)” value is “C (C (EC1.5>25 μM))”.

In the case of `CS(=O)(=O)Nc1cccc(NC(=O)N2c3nc(-c4cccc(C(F)(F)F)c4)ccc3N3CC[C@H]2C3)c1` [Example 642], the “Tryp AVG EC1.5 (μM)” value is reported as “A (A (EC1.5<1 μM))”.

As to `NS(=O)(=O)c1ccc(NC(=O)N2c3nc(-c4cccc(C(F)(F)F)c4)ccc3N3CC[C@H]2C3)cc1` [Example 643], the “Tryp AVG EC1.5 (μM)” value is “A (A (EC1.5<1 μM))”.

As for `COc1cc(NC(=O)N2c3nc(-c4cccc(C(F)(F)F)c4)ccc3N3C[C@@H](O)[C@H]2C3)ncn1` [Example 644], the “Tryp AVG EC1.5 (μM)” value is on record as “B (B (EC1.5 1-25 μM))”.

Take `O=C(Nc1cnccn1)N1c2nc(-c3cccc(C(F)(F)F)c3)ccc2N2C[C@@H](O)[C@H]1C2` [Example 645]: the “Tryp AVG EC1.5 (μM)” value is listed as “A (A (EC1.5<1 μM))”.

On to `O=C(Nc1nncs1)N1c2nc(-c3cccc(C(F)(F)F)c3)ccc2N2CC[C@H]1C2` [Example 646], for which the “Tryp AVG EC1.5 (μM)” value was “A (A (EC1.5<1 μM))”.

In the case of `CCc1nnc(NC(=O)N2c3nc(-c4cccc(C(F)(F)F)c4)ccc3N3CC[C@H]2C3)s1` [Example 647], the “Tryp AVG EC1.5 (μM)” value was “A (A (EC1.5<1 μM))”.

With `O=C(Nc1nnc(-c2ccccc2)s1)N1c2nc(-c3cccc(C(F)(F)F)c3)ccc2N2CC[C@H]1C2` [Example 648], the “Tryp AVG EC1.5 (μM)” value is “A (A (EC1.5<1 μM))”.

Regarding `CC(C)(C)c1nnc(NC(=O)N2c3nc(-c4cccc(C(F)(F)F)c4)ccc3N3CC[C@H]2C3)s1` [Example 649], the “Tryp AVG EC1.5 (μM)” value is given as “B (B (EC1.5 1-25 μM))”.

`O=C(Nc1nnc(C(F)(F)F)s1)N1c2nc(-c3cccc(C(F)(F)F)c3)ccc2N2CC[C@H]1C2` [Example 650]: the “Tryp AVG EC1.5 (μM)” value is “C (C (EC1.5>25 μM))”.

`O=C(Nc1nnc(-c2cccnc2)s1)N1c2nc(-c3cccc(C(F)(F)F)c3)ccc2N2CC[C@H]1C2` [Example 651]: the “Tryp AVG EC1.5 (μM)” value is reported as “A (A (EC1.5<1 μM))”.

As for `O=C(Nc1cccc(Br)n1)N1c2nc(-c3cccc(C(F)(F)F)c3)ccc2N2CC[C@H]1C2` [Example 652], the “Tryp AVG EC1.5 (μM)” value is “A (A (EC1.5<1 μM))”.

Consider `O=C(Nc1cccc(-c2ccsc2)n1)N1c2nc(-c3cccc(C(F)(F)F)c3)ccc2N2CC[C@H]1C2` [Example 653], for which the “Tryp AVG EC1.5 (μM)” value is “A (A (EC1.5<1 μM))”.

On to `O=C(Nc1cccc(-c2ccoc2)n1)N1c2nc(-c3cccc(C(F)(F)F)c3)ccc2N2CC[C@H]1C2` [Example 654], for which the “Tryp AVG EC1.5 (μM)” value is recorded as “A (A (EC1.5<1 μM))”.

On to `O=C(Nc1cccc(-c2cccnc2)n1)N1c2nc(-c3cccc(C(F)(F)F)c3)ccc2N2CC[C@H]1C2` [Example 655], for which the “Tryp AVG EC1.5 (μM)” value was “A (A (EC1.5<1 μM))”.

For the compound `CCCn1cc(-c2cccc(NC(=O)N3c4nc(-c5cccc(C(F)(F)F)c5)ccc4N4CC[C@H]3C4)n2)cn1` [Example 656], the “Tryp AVG EC1.5 (μM)” value is reported as “A (A (EC1.5<1 μM))”.

Take `Cc1noc(C)c1-c1cccc(NC(=O)N2c3nc(-c4cccc(C(F)(F)F)c4)ccc3N3CC[C@H]2C3)n1` [Example 657]: the “Tryp AVG EC1.5 (μM)” value is given as “A (A (EC1.5<1 μM))”.

As for `O=C(Nc1cccc(C2=CCOCC2)n1)N1c2nc(-c3cccc(C(F)(F)F)c3)ccc2N2CC[C@H]1C2` [Example 658], the “Tryp AVG EC1.5 (μM)” value was “A (A (EC1.5<1 μM))”.

Regarding `NC(=O)c1ccc(NC(=O)N2c3nc(-c4cccc(C(F)(F)F)c4)ccc3N3CC[C@H]2C3)cc1` [Example 659], the “Tryp AVG EC1.5 (μM)” value is “A (A (EC1.5<1 μM))”.

Take `O=C(Nc1cccc(-c2cccnc2)c1)N1c2nc(-c3cccc(C(F)(F)F)c3)ccc2N2CC[C@H]1C2` [Example 660]: the “Tryp AVG EC1.5 (μM)” value is on record as “A (A (EC1.5<1 μM))”.

`O=C(NCCn1ccnc1)N1c2nc(-c3cccc(C(F)(F)F)c3)ccc2N2CC[C@H]1C2` [Example 661]: the “Tryp AVG EC1.5 (μM)” value is “C (C (EC1.5>25 μM))”.

With `O=C(Nc1cc(-c2cnco2)ccn1)N1c2nc(-c3cccc(C(F)(F)F)c3)ccc2N2C[C@@H](O)[C@H]1C2` [Example 662], the “Tryp AVG EC1.5 (μM)” value is recorded as “B (B (EC1.5 1-25 μM))”.

For the compound `O=C(Nc1cccnc1)N1c2nc(-c3cccc(C(F)(F)F)c3)ccc2N2C[C@@H](O)[C@H]1C2` [Example 663], the “Tryp AVG EC1.5 (μM)” value is “A (A (EC1.5<1 μM))”.

For the compound `COc1cc(NC(=O)N2c3nc(-c4cccc(C(F)(F)F)c4)ccc3N3C[C@@H](O)[C@H]2C3)nc(OC)n1` [Example 664], the “Tryp AVG EC1.5 (μM)” value is given as “B (B (EC1.5 1-25 μM))”.

As for `O=C(Nc1cccc(-c2cnco2)c1)N1c2nc(-c3cccc(C(F)(F)F)c3)ccc2N2C[C@@H](O)[C@H]1C2` [Example 665], the “Tryp AVG EC1.5 (μM)” value is recorded as “A (A (EC1.5<1 μM))”.

`O=C(Nc1ccc2[nH]ncc2c1)N1c2nc(-c3cccc(C(F)(F)F)c3)ccc2N2CC[C@H]1C2` [Example 666]: the “Tryp AVG EC1.5 (μM)” value was “A (A (EC1.5<1 μM))”.

Regarding `O=C(Nc1cccc(-c2ccccn2)c1)N1c2nc(-c3cccc(C(F)(F)F)c3)ccc2N2CC[C@H]1C2` [Example 667], the “Tryp AVG EC1.5 (μM)” value is reported as “A (A (EC1.5<1 μM))”.
